Data on one compound can be found in US7619005B2, “Methods for treating cognitive impairment in humans with Multiple Sclerosis” (Cognition Pharmaceuticals LLC, priority 2000, dated 2009).

Data set [1] deals with Long-Evans rats. The data set can be described thus: Water Maze acquisition. As to conditions: higher dose (0.5 mg/kg i.p.); p>0.05. Format: in vivo, rat. The protocol: Water Maze testing (Morris, R., J. Neurosci Methods 11:47-60 (1984)) was conducted in a galvanized steel pool, painted white, measuring 180 cm in diameter and 60 cm in height. The pool was equipped with a removable circular platform (10 cm in diameter) made of clear Plexiglas. The pool was filled with water (26° C.) to a level of 1 cm above the surface of the platform. Nontoxic white paint was added to the water to obscure the platform's appearance. The pool was divided conceptually into four quadrants and the platform was located in the NW quadrant 30 cm from the pool wall. Extramaze cues were provided by large geometric shapes adhered to curtains that surrounded two sides of the pool, and by shelving units, a sink, and posters on the visible walls.
The training procedure involved placing the rat into the water, with the rat's head facing the wall of the pool, at one of four different starting points. The rat was allowed 60 seconds to locate the hidden platform. […] After 15 seconds spent on the platform at the end of each trial, the rat was removed from the pool and injected with saline or SN522 (0.25 and 0.5 mg/kg, i.p.). The rat was dried, and returned to its home cage. One trail was conducted each day for 10 days. The latency to reach the platform (escape latency) was recorded on each days training trial.

In data set [2] the test system is Long-Evans rats. In words: Locomotor activity, activity monitoring chambers. Format: in vivo, rat. The protocol: Activity monitoring was conducted in a Plexiglas open-field box measuring 30 by 30 cm. […] The location of the animal within the cage was detected by breaks in the infrared light beams. Light beams status information was collected and rapidly analyzed by a computerized activity monitoring system (VersaMax System, Accuscan Instruments.)
In order to determine whether SN522 had any adverse effects on locomotor or exploratory activity, rats were injected with saline or 0.25, 0.5, 2.5 and 5.0 mg/kg of SN522 and immediately afterwards placed into the activity monitoring chambers for a period of three hours.

Data set [3] relates to Long-Evans rats. The data set can be described thus: Tailflick test of analgesia (SN522). Format: in vivo, rat. Particulars: 0.25, 0.5, 2.5 and 5.0 mg/kg i.p.; 15, 30, 60 minutes. As for the experimental part: The tail-flick response was assessed using a radiant heat tail flick monitor (Accuscan Instruments model TFS) equipped with a radiant heat element and two light beam sensors to detect tail movement.
In order to determine whether SN522 has any analgesic properties, rats (n=10 per treatment group) were injected with saline or SN522 (0.25, 0.5, 2.5 and 5.0 mg/kg, i.p.) and tested at four time points: immediately prior to injection, and again 15, 30, and 60 minutes following drug administration for a tail flick response (D'Amour, F. E., et al., J. Pharmacol. Exp. Ther. 72:174-179 (1941)). To test the tail-flick, the animal was placed on top of the Tail-Flick monitor and gently held in place with a cotton towel. The tail of the animal was placed in a shallow groove lying between the two sensors and over the top of the radiant heat wire. The heat element was activated, and the latency for the animal to flick its tail out of the groove and away from the heat source was automatically recorded via activation of the sensors. The intensity of the heat source was adjusted so that the animal flicked its tail within 3-4 seconds. A 10 second cutoff was imposed to avoid tissue damage. The animal was returned to its home cage immediately following testing.

Another data set concerns scopolamine treated rats. The data set can be described thus: Passive Avoidance in scopolamine treated rats (memory impairment). The data set is classed as in vivo, rat.
Data set [4] relates to normal subjects. The data set can be described thus: Phase I studies of l-methamphetamine: RAVLT word recall.
The subject of data set [5] is Long-Evans rats. In words: Passive Avoidance test, injection immediately after training. As to conditions: i.p. immediately after training; p values=0.007 (C105), 0.0004 (d-amphetamine), 0.03 (SN522).
For data set [6], the system named is normal subjects. In words: Phase I studies of l-methamphetamine: safety and tolerability.
Data set [7] relates to normal subjects. In words: CDR computerized cognitive assessment system, l-methamphetamine.
Method: A randomized, double-blind, placebo-controlled, dose escalation study in human subjects, who were not suffering from an impairment in a memory or cognitive process (“normal subjects”), was conducted to assess the safety, tolerability and pharmacokinetics and improvement in cognitive processes, including memory, following the administration of l-methamphetamine (25 mg, 50 mg, 100 mg, 150 mg).
A selection of tasks from the CDR computerized cognitive assessment system was administered and parallel forms of the tests were presented on each testing session. […] All tasks were computer-controlled, the information was presented on high resolution screens, and the responses recorded via a response module containing two buttons, one marked ‘NO’ and the other ‘YES’. The tracking task additionally involved the use of a joystick. The test battery takes about 20-25 minutes to perform. The tests were administered in the following order: • Picture Presentation: A series of 20 pictures was presented on the screen at the rate of 1 every 3 seconds for the subject to remember. No data were recorded from this task. • Simple Reaction Time: The subject was instructed to press the ‘YES’ response button as quickly as possible every time the word ‘YES’ is presented on the screen. […] A series of digits was then presented in the center of the screen at the rate of 150 per minute and the subject was required to press the ‘YES’ button as quickly as possible every time the digit in the series matches the target digit. There were 45 targets in the series. The task lasted for 3 minutes. • Choice Reaction Time: Either the word ‘NO’ or the word ‘YES’ was presented on the screen and the subject was instructed to press the corresponding button as quickly as possible. There were 50 trials for which each stimulus word was chosen randomly with equal probability and there was a varying inter-stimulus interval. • Rapid Visual Information Processing: A series of digits was presented on the screen at the rate of 100 per minute. The subject had to detect targets consisting of consecutive sequences of either three odd digits or three even digits, and to report them by pressing the ‘YES’ button as quickly as possible. There were 32 targets. The task lasted for 4 minutes. • Tracking: The subject used a joystick to track a randomly moving target on the screen for one minute. The distance off-target per second was recorded. • Spatial Working Memory: A picture of a house was presented on the screen with four of its nine windows lit. The subject had to memorize the position of the lit windows. For each of the 36 subsequent presentations of the house, the subject was required to decide whether or not the one window that was lit was also lit in the original presentation. […]

As for `CN[C@H](C)Cc1ccccc1` [SN522, levo-methamphetamine], the “acquisition (escape latency) compared with saline group” value in the data set with Long-Evans rats [1] was “did not reveal any statistical differences”. The “activity relative to saline control” value with Long-Evans rats [2] (0.5 mg/kg, p=0.028) is reported as “only modest increases in activity”; with Long-Evans rats [2] (2.5 and 5.0 mg/kg, p<0.001), “small, but significant increases in activity”. For the same compound, the “motor behavior (FIG. 23 description)” value with Long-Evans rats [2] (0.25 and 0.5 mg/kg ip) was “no or modest changes in motor behavior”. Besides, in the data set with Long-Evans rats [2] (doses ten times over the therapeutic doses (2.5, 5.0 mg/kg ip)), the “activity (FIG. 23 description)” value is reported as “only mild increases in activity”. For the same compound, the “pain sensitivity (tail flick latency)” value in the data set on Long-Evans rats [3] was “does not alter pain sensitivity”. In addition, the “performance vs animals treated with scopolamine and saline” value in the data set with scopolamine treated rats (0.25, 0.5 and 1.0 mg/kg, p values=0.01, 0.04 and 0.007) is “performed significantly better than animals treated with scopolamine and saline”. The “alleviation of scopolamine impairment (step-through latency)” value in the data set on scopolamine treated rats (SN522 i.p. immediately after training, log rank p=0.02 (FIG. 32)) is “effective at alleviating the impairment in the scopolamine-injected animals”. In addition, the RAVLT memory scores result with normal subjects [4] (first Phase I study (1, 4, 16, 32 mg)) is “No difference in memory scores”. In addition, the “RAVLT mean values vs placebo” value with normal subjects [4] (second Phase I study (25, 50, 100 mg) (FIG. 34)) is “all dose groups have mean values greater than placebo at 30 minutes and 24 hours”. For the same compound, in the data set on Long-Evans rats [5], the “dose that significantly improved performance on the passive avoidance task” value is listed as 0.5 mg/kg. In addition, the tolerability result with normal subjects [6] (150 mg dose, a few subjects in the second Phase I trial) was “not well tolerated”; in the data set with normal subjects [6] (first and second Phase I trials (1-100 mg)), “generally well tolerated”. Further, the “Picture Recognition-Sensitivity Index vs placebo” value in the data set on normal subjects [7] (25 mg (p=0.0177) and 150 mg (p=0.0254) (FIG. 36)) is “significant benefits”. Further, in the data set with normal subjects [7] (50 mg (p=0.0002), 100 mg (p=0.0001) and 150 mg (p=0.0001) (FIG. 38)), the “Information Processing False Alarms vs placebo” value is reported as “significant decrements against placebo”. In addition, in the data set on normal subjects [7] (100 mg (p=0.0002) and 150 mg (p=0.0001) (FIG. 37)), the “Information Processing Targets Detected vs placebo” value is reported as “significant benefits”. The “speed of response (Total Speed score)” value in the data set with normal subjects [7] (25, 50, 100, 150 mg (FIG. 35)) is “dose-dependent effect on speed of response”.
